Laboratory results published in ChEMBL document CHEMBL3430912, “GSK Tres Cantos Anti-Kinetoplastid Screening (TCAKS) Data”.

Legend:
Trypanosoma cruzi [1] = assay: GSK_TCAKS: pIC50 Trypanosoma cruzi viability assay using beta-GAL activity. This assay was run at single shot at 5uM compound concentration per well. The biological reagents consisted of NIH-3T3 host cells and trypomastigotes parasitic cells; both cell types were set to a 3.3 * 10^5 cells/mL dilution in assay DMEM by means of a CASY cell counter device using a 60um capillary. 6 uL of the mixture were dispensed per well (about 1 * 10^3 host-cells and 1 * 10^3 parasites) with a Multidrop Combi dispenser. […] In all wells, the percentage of DMSO never exceeded 0.5%. Plates incubated for four days at 37C, 5% CO2. The substrate used for the assay fluorescence intensity (FLINT) readout was resorufin-beta-D-galactopiranoside (Sigma-Aldrich) at 5uM per well. It was diluted in PBS supplemented with the soft detergent Igepal (Fluka).; assay type: functional, organism-based, Mus musculus; details: Tulahuen, NIH3T3
[2] = biological target: Sterol 14-alpha demethylase (Trypanosoma cruzi (strain CL Brener), UniProt Q7Z1V1); assay: GSK_TCAKS: pIC50 CYP51 from Trypanosoma cruzi.; assay type: functional
Chain of Sterol 14-alpha demethylase (Q7Z1V1 whole entry): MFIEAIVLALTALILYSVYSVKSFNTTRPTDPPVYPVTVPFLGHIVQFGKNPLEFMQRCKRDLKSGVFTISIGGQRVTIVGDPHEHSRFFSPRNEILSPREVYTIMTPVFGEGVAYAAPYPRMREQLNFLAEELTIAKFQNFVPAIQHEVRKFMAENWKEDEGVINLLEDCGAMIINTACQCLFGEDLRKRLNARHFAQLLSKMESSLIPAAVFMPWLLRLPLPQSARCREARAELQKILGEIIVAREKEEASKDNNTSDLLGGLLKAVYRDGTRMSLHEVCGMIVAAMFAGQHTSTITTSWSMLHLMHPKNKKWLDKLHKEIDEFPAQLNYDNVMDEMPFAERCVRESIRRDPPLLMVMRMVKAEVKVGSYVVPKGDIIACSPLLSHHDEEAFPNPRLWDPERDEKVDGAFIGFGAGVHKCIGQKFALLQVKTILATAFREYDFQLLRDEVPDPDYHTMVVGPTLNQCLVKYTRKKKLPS

[3] = tested on: Trypanosoma brucei brucei; assay: GSK_TCAKS: pIC50 Trypanosoma brucei viability assay using fluorescence intensity. Assay plates (1536-well) were prepared by dispensing 25nL of compound solution per well using an Echo acoustic dispenser (Labcyte).; assay type: functional, organism-based; details: Lister 427, 2 h
[4] = GSK_TCAKS: pIC50 HepG2 human cell line viability assay using luminiscence. […] Seeding density was checked to ensure that new mono-layers were not more than 50% confluent at the time of harvesting. Cell suspension was added to 500 mL of the same medium at a final density of 1.2 * 10^5 cells/mL. This cell suspension was dispensed (25 uL, 3000 cells per well) into 384-well clear-bottom plates using a Multidrop Combi dispenser. Prior to addition of the cell suspension, the screening compounds (250 nL) were pre-dispensed into the plates with an Echo liquid handler. Plates were incubated for 48 h at 37C, 5% CO2. After incubation, plates equilibrated at room temperature for 30 min before proceeding to develop the luminescent signal. The signal developer, CellTiter-Glo Reagent, was allowed to equilibrate at room temperature for 30 min and added to the plates (25uL per well) using a Multidrop Combi dispenser. Plates were left for 10 min at room temperature for stabilization and then read using a ViewLux.; assay type: toxicity, cell-based
Trypanosoma cruzi [5] = assay: (§1) GSK_TCAKS: pIC50 H2C9 Imaging: H9c2 Host Cardiomyocytes. […] Cells were then washed once with PBS before infection. T. cruzi trypomastigotes, collected at days 5 to 8 after infection from LLC-MK2 parasite infected cultures, were allowed to swim out for 4h at 37C from a centrifuged pellet (2,500 rpm/10 min/room temperature). Trypomastigotes were then collected and counted in a CASY Cell Counter. Trypomastigotes, in supplemented DMEM, were added to H9c2 cultures in a multiplicity of infection of 1 and incubated for 18 h. Cells were washed once with PBS before incubation of the infected H9c2 monolayer with trypsin (Life-Technologies) to detach cells from the flask. Cells were counted in a CASY Cell Counter using a 150 um capillary and their density set at 5 * 10^4 cells per mL in supplemented assay DMEM. Infected H9c2 were dispensed into 384-well poly-lysine coated assay plates at 50uL per well using a Multidrop Combi dispenser. After seeding them, the plates were incubated at 37C, 5% CO2 for 72h. Cultures were then fixed and stained by addition of 50 uL of a solution containing 8% formaldehyde and 4 uM DRAQ5 DNA dye (BioStatus, UK) per well. […] Five images were collected per well for reliable statistical analysis. Automated image analysis was performed with a script developed on Acapella High Content Imaging and Analysis Software (PerkinElmer). Output: Number of H9c2 Host Cardiomyocytes nuclei to determine drug-related cytotoxicity.; assay type: functional, organism-based, Rattus norvegicus; details: H9c2, 4 h
Trypanosoma cruzi [6] = assay: as §1, with “Trypanosoma cruzi” for “H2C9”, “Infected Cells.” for “H9c2 Host Cardiomyocytes.”, “percentage” for “Number”, “infected cells per well as a second infection marker.” for “H9c2 Host Cardiomyocytes nuclei to determine drug-related cytotoxicity.”; assay type: functional, organism-based, Rattus norvegicus; details: H9c2, 4 h
Trypanosoma cruzi [7] = assay: as §1, with “Trypanosoma cruzi” for “H2C9”, “Amastigotes/Cell.” for “H9c2 Host Cardiomyocytes.”, “number” for “Number”, “amastigotes per cell as infection level measurement.” for “H9c2 Host Cardiomyocytes nuclei to determine drug-related cytotoxicity.”; assay type: functional, organism-based, Rattus norvegicus; details: H9c2, 4 h
[8] = tested on: Trypanosoma brucei brucei; assay: GSK_TCAKS: pIC50 Trypanosoma brucei viability assay using luminiscence. Assay plates (1536-well) were prepared. T. brucei cultures were harvested and counted in a CASY cell counter. A parasite suspension was prepared at a final concentration of 5 * 10^4 cells/mL in complete HMI9 medium and 6uL was dispensed to all wells containing compounds using a Multidrop Combi dispenser. 6uL of HMI9 media with 0.4% DMSO were dispensed to control columns. Plates were incubated for 24 h at 37C, 5% CO2 then tempered for 10 min at room temperature. ATP content was quantified by adding 4 uL of CellTiter-Glo Reagent (Promega) according to the manufacturer's instructions. Luminescence was measured using a ViewLux.; assay type: functional, organism-based; details: Lister 427, CASY
Leishmania donovani [9] = assay: GSK_TCAKS: pIC50 Leishmania donovani Imaging: Amastigotes/Macrophages. Assay plates (384-well) were prepared by adding 250nL of compound to each well. For single shot assay, the final compound concentration was 5 uM. […] Automated image analysis was performed with a script developed on Acapella High Content Imaging and Analysis Software (PerkinElmer). Output: Average number of amastigotes per macrophage cell were reported for each well.; assay type: functional, organism-based, Homo sapiens; details: THP-1
Leishmania donovani [10] = assay: GSK_TCAKS: pIC50 Leishmania donovani Imaging: Infected Macrophages. Assay plates (384-well) were prepared by adding 250nL of compound to each well. For single shot assay, the final compound concentration was 5 uM. […] Automated image analysis was performed with a script developed on Acapella High Content Imaging and Analysis Software (PerkinElmer). Output: Percent of infected macrophage cells were reported for each well.; assay type: functional, organism-based, Homo sapiens; details: THP-1
Leishmania donovani [11] = assay: GSK_TCAKS: pIC50 Leishmania donovani Imaging: THP-1 Host Macrophages. Assay plates (384-well) were prepared by adding 250nL of compound to each well. For single shot assay, the final compound concentration was 5 uM. […] Automated image analysis was performed with a script developed on Acapella High Content Imaging and Analysis Software (PerkinElmer). Output: THP-1 cell count were reported for each well.; assay type: functional, organism-based, Homo sapiens
Leishmania donovani [12] = assay: GSK_TCAKS: pIC50 Leishmania donovani viability assay using fluorescence intensity. Assay plates (1536-well) were prepared by adding 30nL per well of compound. For single shot assay, the final compound concentration was 5uM. […] Briefly, eGFP LdBOB axenic amastigotes were harvested, fixed and counted in a CASY cell counter (Roche-Applied Science). A final concentration of 1.5 * 10^5 cells per well were prepared in amastigote media containing 500 U/mL penicillin/streptomycin (Invitrogen) and 6uL was dispensed to each experimental well using a Multidrop Combi dispenser (Thermo Scientific). 6uL of assay media was dispensed to control columns used as reference for 100% compound response. Following incubation for 72 h at 37C, 5% CO2, 2 uL of resazurin was added to each well at a final concentration of 0.5 mM in phosphate buffered saline (PBS) with IGEPAL (Sigma-Aldrich), 0.05% (v/v).; assay type: functional, organism-based

| SMILES | IC50 (Trypanosoma cruzi [1]) [µM] | IC50 [2] [µM] | IC50 [3] [µM] | IC50 at 48 h [4] [µM] | IC50 (Trypanosoma cruzi [5]) [µM] | IC50 (Trypanosoma cruzi [6]) [µM] | IC50 (Trypanosoma cruzi [7]) [µM] | IC50 [8] [µM] | IC50 (Leishmania donovani [9]) [µM] | IC50 (Leishmania donovani [10]) [µM] | IC50 (Leishmania donovani [11]) [µM] | IC50 (Leishmania donovani [12]) [µM] |
| --- | --- | --- | --- | --- | --- | --- | --- | --- | --- | --- | --- | --- |
| CCOc1ccc(Nc2ccc(S(=O)(=O)N3CCN(C)CC3)cc2[N+](=O)[O-])cc1OCC | 7.94 | 31.6 | 6.31 | > 100 | > 50.1 | > 50.1 | 3.16 | 31.6 | 5.01 | 7.94 | 12.6 | 0.794 |
| Cc1cc(C)n(-c2nc(NC(C)C)nc(NC(C)(C)C)n2)n1 | 2.24 | > 100 | 20 | > 100 | 0.2 | 1.58 | 0.501 | 12.6 | 3.98 | 5.01 | 6.31 | 3.16 |
| O=c1ccc2ccc(F)c3c2n1C[C@H]3CN1CCN(CC(O)c2cc3c(cn2)OCS3)CC1 (some centres not stated) | 0.708 | > 100 | 0.2 | > 100 | > 50.1 | 0.631 | 0.316 | 0.398 | > 50.1 | > 50.1 | > 50.1 | 20 |
| COc1cc(Cl)c(C)cc1NC(=O)c1ccc([N+](=O)[O-])s1 | 0.631 | 15.8 | 0.501 | 31.6 | 2.51 | 0.631 | 0.501 | 10 | 5.01 | 6.31 | > 50.1 | 7.94 |
| Cc1cc(NC(=O)c2ccc([N+](=O)[O-])s2)ccc1Br | 0.251 | 10 | 0.316 | 39.8 | 2.51 | 0.398 | 0.251 | 5.01 | 1.58 | 2.51 | 15.8 | 3.16 |
| CS(=O)(=O)c1ccccc1C(=O)N(Cc1ccccc1)c1ccccc1 | 50.1 | 20 | 0.398 | > 100 | > 50.1 | > 50.1 | 39.8 | 0.631 | 15.8 | > 50.1 | > 50.1 | 15.8 |
| Cc1ccc(Nc2nc(N)nc(CNC(c3nc4ccccc4[nH]3)C(C)C)n2)cc1 (configuration not stated) | 1 | 50.1 | 7.94 | > 100 | > 50.1 | 7.94 | 5.01 | 5.01 | 1.26 | 2 | 25.1 | 3.98 |
| O=C(Nc1ccc(S(=O)(=O)N2CCCC2)cc1)c1ccc([N+](=O)[O-])s1 | 0.2 | > 100 | 0.158 | 6.31 | 1.58 | 0.2 | 0.2 | 0.2 | 1 | 1.58 | > 50.1 | 7.94 |
| Cc1ccc(-c2csc(NC(=O)C=Cc3ccc(S(=O)(=O)N4CCOCC4)cc3)n2)o1 | 7.94 | 20 | 3.16 | > 100 | 31.6 | 10 | 10 | 5.01 | 0.794 | 5.01 | > 50.1 | 6.31 |
| O=C(Nc1nc2cc(Cl)ccc2o1)c1cccc(Cl)c1 | 0.794 | > 100 | 0.794 | > 100 | 2.51 | 0.794 | 0.631 | 0.794 | > 50.1 | > 50.1 | 6.31 | 0.398 |
| O=C(NCc1ccc(Cl)cc1)C1CN(C(=O)c2ccc(F)cc2)CCS1 (configuration not stated) | 25.1 | 12.6 | 0.794 | > 100 | > 50.1 | 39.8 | 31.6 | 0.631 | > 50.1 | > 50.1 | > 50.1 | > 50.1 |
